Test results reported in patent publication EP4496786B1, “CRYSTALLINE FORM OF 2-ACRYLAMIDO-2-METHYLPROPANESULPHONIC ACID POTASSIUM SALT” (SNF Group, priority 2023, dated 2024).

Key:
Format in all cases: physicochemical
[1] = Storage stability of ATBS / ATBS.K stored in solid form: homopolymer by steric exclusion chromatography; details: newly prepared solution
Protocol: In parallel, the stability of the different ATBS (acid AH or potassium salt AK2a) in solid form was also assessed over the same period of time.
In this case, every three months, 500 g of a solution of ATBS.K was freshly prepared according to the preparation process described in example 10a or 11 using the stored ATBS products of AH, AK2a and CE-AK2c to 2e.
Stability of the solid products was also assessed by monitoring the amount of homopolymers of ATBS.K present after that time.
The solutions were analysed by liquid-phase steric exclusion chromatography using an Agilent 1260 chromatograph equipped with Aquagel-OH 20, 30, 40 and 50 columns allowing analysis of anionic polymers up to 600,000 g/mol PEG equivalent.
The solutions of ATBS.K were diluted to 2000 ppm (by weight in water) before being injected. The UV signal at 250 nm at the column outlet was integrated for the polymer peaks and are detailed in tables 4 and 5 below. The larger the signal area, the more polymer is present, and therefore the lower the stability of the product over time. Table 4: Stability of ATBS and ATBS potassium salt stored in solutions

[2] = Particle-size distribution by laser diffraction (Cilas 1190)
Protocol: ATBS AH and crystals of ATBS.K AK2a are analysed by laser diffraction to determine their particle-size distribution.
The laser diffraction equipment used is a Cilas 1190.

[3] = Minimum ignition energy (MIE), standard NF EN 13821, vertical Hartmann tube; details: dispersed solid mass 0,5 g
Source text: The minimum ignition energy represents the minimum energy that must be supplied to a product (chemical compound) to cause it to ignite. The energy may be electrical or thermal. The minimum ignition energy is an essential piece of information when considering the risk of explosion during product handling (transfer, storage, reaction, shaping, etc.). In the case of solids, this energy is the minimum energy of an electric spark likely to ignite a cloud of dust. The higher the value of the minimum ignition energy, the less risk the solid presents when used, handled or stored. The minimum ignition energy is measured in accordance with standard NF EN 13821. The explosimeter is a vertical Hartmann tube. The dust dispersion system is of the mushroom type. Total induction is less than 25 microhenry. Discharge voltage is between 5 kV and 15 kV. The electrodes are made of brass and spaced apart by a minimum distance of 6 mm.

Row | SMILES | UV signal at 250 nm integrated for the polymer peaks ([1]; T0) [mV.s] | UV signal at 250 nm integrated for the polymer peaks ([1]; T0 + 6 months) [mV.s] | UV signal at 250 nm integrated for the polymer peaks ([1]; T0 + 9 months) [mV.s] | UV signal at 250 nm integrated for the polymer peaks ([1]; T0 + 12 months) [mV.s] | 90% of the particles are smaller than [2] | d50 value [2] | UV signal at 250 nm integrated for the polymer peaks ([1]; T0 + 3 months, potassium salt) [mV.s] | also measured
1 | C=CC(=O)NC(C)(C)CS(=O)(=O)O [ATBS AH, 2-acrylamido-2-methylpropanesulphonic acid] | 0 | 7702 | 10503 | 256300 | 100 µm | approximately 40 µm | – | UV signal at 250 nm integrated for the polymer peaks ([1]; T0 + 3 months): 250 mV.s; Flame ([3]; Energy 300 mJ): Average; Pressure ([3]; Energy 300 mJ): Average; Flame ([3]; Energy 500 mJ): Average; Pressure ([3]; Energy 500 mJ): Average; Flame ([3]; Energy 1000 mJ): Small; Pressure ([3]; Energy 1000 mJ): Low
2 | C=CC(=O)NC(C)(C)CS(=O)(=O)[O-].[K+] [ATBS.K AK2a, 2-acrylamido-2-methylpropanesulphonic acid potassium salt] | 0 | 6532 | 9532 | 25631 | approximately 1500 µm | approximately 600 µm | 200 | particles smaller than 325 µm [2]: less than 10%; Flame ([3]; High energy): Small; Pressure ([3]; High energy): Low
3 | C=CC(=O)NC(C)(C)CS(=O)(=O)[O-].[K+] [ATBS.K CE-AK2c, 2-acrylamido-2-methylpropanesulphonic acid potassium salt] | 0 | – | – | – | – | – | 261 | –
4 | C=CC(=O)NC(C)(C)CS(=O)(=O)[O-].[K+] [ATBS.K CE-AK2d, 2-acrylamido-2-methylpropanesulphonic acid potassium salt] | 0 | – | – | – | – | – | 254 | –
5 | C=CC(=O)NC(C)(C)CS(=O)(=O)[O-].[K+] [ATBS.K CE-AK2e, 2-acrylamido-2-methylpropanesulphonic acid potassium salt] | 0 | – | – | – | – | – | 251 | –
